Measurements reported in patent US20200255478A1, “NOVEL COMPOUNDS ACTIVATING THE NRF2 PATHWAY” (Almirall, S.A., priority 2017, published 2020).
Starred links: 1 amine or outer side, 2 acyl side, 3 side chain; linkers in the order of their positions; H or OH if unused. Positions of bridges follow the written chain, without caps; N, C: chain ends. Non-standard residues stand in square brackets, D forms with d. Residues, ends and D or L forms follow the SMILES beside them. *: point of attachment. Phe(4-yl) = O=C([C@H](Cc1ccc([*:3])cc1)N[*:1])[*:2]; Pyridine(2,6-diCH2) = c1cc(C[*:1])nc(C[*:2])c1; mXylylene = c1cc(C[*:1])cc(C[*:2])c1; oXylylene = c1ccc(C[*:2])c(C[*:1])c1; X2 = c1ccc2cc(C[*:2])c(C[*:1])cc2c1; X6 = c1ccc2nc(C[*:2])c(C[*:1])nc2c1; Stearoyl = CCCCCCCCCCCCCCCCCC(=O)*; pXylylene = c1cc(C[*:2])ccc1C[*:1]; βAla = NCCC(=O)O

These compounds were tested against Keap1-Maltose Binding Protein (MBP tag) (Homo sapiens, UniProt Q14145) (assay: Nrf2-Keap1 HTRF (TR-FRET) binding assay: displacement of biotinylated ETGE peptide from Keap1-MBP). Settings: not given.
Chain of Keap1-Maltose Binding Protein (MBP tag) (Q14145 whole entry): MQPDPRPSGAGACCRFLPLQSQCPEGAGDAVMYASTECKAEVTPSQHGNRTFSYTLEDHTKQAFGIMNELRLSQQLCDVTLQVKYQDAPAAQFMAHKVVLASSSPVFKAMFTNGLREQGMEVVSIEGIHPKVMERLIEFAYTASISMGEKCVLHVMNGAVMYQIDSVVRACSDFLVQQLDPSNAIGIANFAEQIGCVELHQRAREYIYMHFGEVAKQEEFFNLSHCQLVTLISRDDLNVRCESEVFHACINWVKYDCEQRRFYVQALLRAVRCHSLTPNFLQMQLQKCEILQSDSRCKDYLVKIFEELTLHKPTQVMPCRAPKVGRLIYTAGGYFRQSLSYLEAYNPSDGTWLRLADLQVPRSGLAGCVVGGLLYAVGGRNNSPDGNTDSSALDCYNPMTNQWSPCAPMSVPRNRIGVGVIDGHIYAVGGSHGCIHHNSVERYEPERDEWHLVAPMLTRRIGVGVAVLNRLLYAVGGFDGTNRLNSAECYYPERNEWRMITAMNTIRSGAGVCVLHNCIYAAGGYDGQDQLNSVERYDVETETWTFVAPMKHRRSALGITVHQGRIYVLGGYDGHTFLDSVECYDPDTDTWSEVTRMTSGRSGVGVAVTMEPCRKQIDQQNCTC
`CC/C=C\C/C=C\C/C=C\CCCCCCCC(=O)N[C@H]1C[C@H]2C(=O)N[C@@H](CCC(N)=O)C(=O)N[C@H]3CSCc4ccccc4CSC[C@H](NC(=O)[C@H](CCC(=O)O)NC(=O)CNC(=O)[C@H]([C@@H](C)O)NC(=O)[C@H](CCC(=O)O)NC(=O)[C@@H]4CCCN4C(=O)[C@H](CC(=O)O)NC3=O)C(=O)N[C@@H](CC(C)C)C(=O)N3CCC[C@@H]3C(=O)N2C1` [Example 86, {[&^1Pro((4S)-NH-α-linolenyl)-Gln-Cys(&^2)-Asp-Pro-Glu-Thr-Gly-Glu-Cys(&^3)-Leu-D-Pro&^1][&^2(1,2-phenylenediyl)dimethylene&^3]}] was tested, and the IC50 was < 1 nM. With `CCCCCCCCCCCCCCCCCC(=O)N[C@H]1C[C@H]2C(=O)N[C@@H](CCC(N)=O)C(=O)N[C@H]3CSCc4cccc(c4)CSC[C@H](NC(=O)[C@H](CCC(=O)O)NC(=O)CNC(=O)[C@H]([C@@H](C)O)NC(=O)[C@H](CCC(=O)O)NC(=O)[C@@H]4CCCN4C(=O)[C@H](CC(=O)O)NC3=O)C(=O)N[C@@H](CC(C)C)C(=O)N3CCC[C@@H]3C(=O)N2C1` [Example 74, {[&^1Pro((4S)-NH-Stearyl)-Gln-Cys(&^2)-Asp-Pro-Glu-Thr-Gly-Glu-Cys(&^3)-Leu-D-Pro&^1][&^2(1,3-phenylenediyl)dimethylene&^3]}] the IC50 was < 1 nM. With `CC(=O)N[C@H]1C[C@H]2C(=O)N[C@@H](CCC(N)=O)C(=O)N[C@H]3CSCc4ccccc4CSC[C@H](NC(=O)[C@H](CCC(=O)O)NC(=O)CNC(=O)[C@H]([C@@H](C)O)NC(=O)[C@H](CCC(=O)O)NC(=O)[C@@H]4CCCN4C(=O)[C@H](CC(=O)O)NC3=O)C(=O)N[C@@H](CC(C)C)C(=O)N3CCC[C@@H]3C(=O)N2C1` [Example 64, {[&^1Pro((4S)-NH-Acetyl)-Gln-Cys(&^2)-Asp-Pro-Glu-Thr-Gly-Glu-Cys(&^3)-Leu-D-Pro&^1][&^2(1,2-phenylenediy1)dimethylene&^3]}] the IC50 was < 1 nM.

Same assay, conditions: HTRF (TR-FRET); displacement of ETGE-biotin from Keap1-MBP; values banded into grades; read-out: Binding (IC50) ETGE-Keap1
With `CC(=O)N[C@H]1CSCc2cc3ccccc3cc2CSC[C@@H](C(N)=O)NC(=O)[C@H](CCC(=O)O)NC(=O)CNC(=O)[C@H]([C@@H](C)O)NC(=O)[C@H](CCC(=O)O)NC(=O)[C@H](CCC(=O)O)NC(=O)[C@H](CC(=O)O)NC1=O` [Example 27, {[Acetyl-Cys(&^1)-Asp-Glu-Glu-Thr-Gly-Glu-Cys(&^2)-NH2][&^1(naphthalene)2,3-diyldimethylene&^2]}] (Ac-CDEETGEC-NH2; linker 1-8 via X2) the IC50 was 1 to 100 nM. With `CC(C)C[C@H](NC(=O)[C@@H]1CSCc2cccc(c2)CSC[C@H](NC(=O)[C@H](CCC(N)=O)NC(=O)[C@@H](N)CC(C)C)C(=O)N[C@@H](CC(=O)O)C(=O)N[C@@H](C)C(=O)N[C@@H](CCC(=O)O)C(=O)N[C@@H]([C@@H](C)O)C(=O)NCC(=O)N[C@@H](CCC(=O)O)C(=O)N1)C(=O)N1CCC[C@H]1C(=O)O` [Example 14, {[H-Leu-Gln-Cys(&^1)-Asp-Ala-Glu-Thr-Gly-Glu-Cys(&^2)-Leu-Pro-OH][&^1(1,3-phenylenediyl)dimethylene&^2]}] (H-LQCDAETGECLP-OH; linker 3-10 via mXylylene) the IC50 was < 1 nM. In the case of `CCCCCCCCCCCCCCCCCC(=O)NCCC(=O)N[C@@H](CC(C)C)C(=O)N[C@@H](CCC(N)=O)C(=O)N[C@H]1CSCc2nc3ccccc3nc2CSC[C@@H](C(=O)N[C@@H](CC(C)C)C(=O)N2CCC[C@H]2C(N)=O)NC(=O)[C@H](CCC(=O)O)NC(=O)CNC(=O)[C@H]([C@@H](C)O)NC(=O)[C@H](CCC(=O)O)NC(=O)[C@@H]2CCCN2C(=O)[C@H](CC(=O)O)NC1=O` [Example 61, {[Stearyl-βAla-Leu-Gln-Cys(&^1)-Asp-Pro-Glu-Thr-Gly-Glu-Cys(&^2)-Leu-Pro-NH2][&^1(quinoxaline)2,3-diyldimethylene&^2]}] ({Stearoyl-βAla}-LQCDPETGECLP-NH2; linker 3-10 via X6), the IC50 is reported as 1 to 100 nM. `CC(=O)N[C@H]1CSCc2ccccc2CSC[C@@H](C(N)=O)NC(=O)[C@H](CCC(=O)O)NC(=O)CNC(=O)[C@H]([C@@H](C)O)NC(=O)[C@H](CCC(=O)O)NC(=O)[C@H](C)NC(=O)[C@H](CC(=O)O)NC1=O` [Example 20, {[Acetyl-Cys(&^1)-Asp-Ala-Glu-Thr-Gly-Glu-Cys(&^2)-NH2][&^1(1,2-phenylenediyl)dimethylene&^2]}] gave an IC50 of 1 to 100 nM. Compound `CCCCCCCCCCCCCCCCCC(=O)NCCC(=O)N[C@@H](CC(C)C)C(=O)N[C@@H](CCC(N)=O)C(=O)N[C@H]1CSCc2cccc(n2)CSC[C@@H](C(=O)N[C@@H](CC(C)C)C(=O)N2CCC[C@H]2C(N)=O)NC(=O)[C@H](CCC(=O)O)NC(=O)CNC(=O)[C@H]([C@@H](C)O)NC(=O)[C@H](CCC(=O)O)NC(=O)[C@@H]2CCCN2C(=O)[C@H](CC(=O)O)NC1=O` [Example 62, {[Stearyl-βAla-Leu-Gln-Cys(&^1)-Asp-Pro-Glu-Thr-Gly-Glu-Cys(&^2)-Leu-Pro-NH2][&^1(pyridine)2,6-diyldimethylene&^2]}] ({Stearoyl-βAla}-LQCDPETGECLP-NH2; linker 3-10 via Pyridine(2,6-diCH2)) has an IC50 of 1 to 100 nM. `CCCCCCCCCCCCCCCCCC(=O)NCCC(=O)N[C@@H](CC(C)C)C(=O)N[C@@H](CCC(N)=O)C(=O)N[C@H]1CSCc2cc3ccccc3cc2CSC[C@@H](C(=O)N[C@@H](CC(C)C)C(=O)N2CCC[C@H]2C(=O)O)NC(=O)[C@H](CCC(=O)O)NC(=O)CNC(=O)[C@H]([C@@H](C)O)NC(=O)[C@H](CCC(=O)O)NC(=O)[C@@H]2CCCN2C(=O)[C@H](CC(=O)O)NC1=O` [Example 36, {[Stearyl-βAla-Leu-Gln-Cys(&^1)-Asp-Pro-Glu-Thr-Gly-Glu-Cys(&^2)-Leu-Pro-OH][&^1(naphthalene)2,3-diyldimethylene&^2]}] ({Stearoyl-βAla}-LQCDPETGECLP-OH; linker 3-10 via X2) was tested, and the IC50 was 1 to 100 nM. Work on `CC(C)C[C@H](NC(=O)[C@@H]1CSCc2ccccc2CSC[C@H](NC(=O)[C@H](CCC(N)=O)NC(=O)[C@@H](N)CC(C)C)C(=O)N[C@@H](CC(=O)O)C(=O)N[C@@H](C)C(=O)N[C@@H](CCC(=O)O)C(=O)N[C@@H]([C@@H](C)O)C(=O)NCC(=O)N[C@@H](CCC(=O)O)C(=O)N1)C(=O)N1CCC[C@H]1C(=O)NCCC(=O)N[C@@H](CCCNC(=N)N)C(=O)N[C@@H](CCCCN)C(=O)N[C@@H](CCCCN)C(=O)N[C@@H](CCCNC(=N)N)C(=O)N[C@@H](CCCNC(=N)N)C(=O)N[C@@H](CCC(N)=O)C(=O)N[C@@H](CCCNC(=N)N)C(=O)N[C@@H](CCCNC(=N)N)C(=O)N[C@@H](CCCNC(=N)N)C(N)=O` [Example 18] yielded an IC50 of 1 to 100 nM. `CC(=O)N[C@H]1Cc2ccc(cc2)SC[C@@H](C(N)=O)NC(=O)[C@H](CCC(=O)O)NC(=O)CNC(=O)[C@H]([C@@H](C)O)NC(=O)[C@H](CCC(=O)O)NC(=O)[C@H](CCC(=O)O)NC(=O)[C@H](CC(=O)O)NC1=O` [Example 10, Acetyl-Phe(p-&^1)-Asp-Glu-Glu-Thr-Gly-Glu-Cys(&^1)-NH2] (Ac-[Phe(4-yl)]DEETGEC-NH2; thioether 1-8) showed an IC50 of 100 to 5000 nM. With `CC(C)C[C@H](NC(=O)[C@@H]1CSCc2cccc(c2)CSC[C@H](NC(=O)[C@H](CCC(N)=O)NC(=O)[C@@H](N)CC(C)C)C(=O)N[C@@H](CC(=O)O)C(=O)N[C@@H](C)C(=O)N[C@@H](CCC(=O)O)C(=O)N[C@@H]([C@@H](C)O)C(=O)NCC(=O)N[C@@H](CCC(=O)O)C(=O)N1)C(=O)N1CCC[C@H]1C(=O)NCCC(=O)N[C@@H](CCCNC(=N)N)C(=O)N[C@@H](CCCCN)C(=O)N[C@@H](CCCCN)C(=O)N[C@@H](CCCNC(=N)N)C(=O)N[C@@H](CCCNC(=N)N)C(=O)N[C@@H](CCC(N)=O)C(=O)N[C@@H](CCCNC(=N)N)C(=O)N[C@@H](CCCNC(=N)N)C(=O)N[C@@H](CCCNC(=N)N)C(N)=O` [Example 16] the IC50 was < 1 nM. `CCCCCCCCCCCCCCCCCC(=O)NCCC(=O)N[C@@H](CC(C)C)C(=O)N[C@@H](CCC(N)=O)C(=O)N[C@H]1CSCc2ccccc2CSC[C@@H](C(=O)N[C@@H](CC(C)C)C(=O)N2CCC[C@H]2C(N)=O)NC(=O)[C@H](CCC(=O)O)NC(=O)CNC(=O)[C@H]([C@@H](C)O)NC(=O)[C@H](CCC(=O)O)NC(=O)[C@@H]2CCCN2C(=O)[C@H](CC(=O)O)NC1=O` [Example 48, {[Stearyl-βAla-Leu-Gln-Cys(&^1)-Asp-Pro-Glu-Thr-Gly-Glu-Cys(&^2)-Leu-Pro-NH2][&^1(1,2-phenylenediyl)dimethylene&^2]}] ({Stearoyl-βAla}-LQCDPETGECLP-NH2; linker 3-10 via oXylylene) gave an IC50 of 1 to 100 nM. Work on `CC(C)C[C@H](NC(=O)[C@@H]1CSCc2ccc(cc2)CSC[C@H](NC(=O)[C@H](CCC(N)=O)NC(=O)[C@@H](N)CC(C)C)C(=O)N[C@@H](CC(=O)O)C(=O)N[C@@H](CCC(=O)O)C(=O)N[C@@H](CCC(=O)O)C(=O)N[C@@H]([C@@H](C)O)C(=O)NCC(=O)N[C@@H](CCC(=O)O)C(=O)N1)C(=O)N1CCC[C@H]1C(=O)O` [Example 2, {[H-Leu-Gln-Cys(&^1)-Asp-Glu-Glu-Thr-Gly-Glu-Cys(&^2)-Leu-Pro-OH][&^1(1,4-phenylenediyl)dimethylene&^2]}] (H-LQCDEETGECLP-OH; linker 3-10 via pXylylene) yielded an IC50 of 100 to 5000 nM. `CC(C)C[C@H](NC(=O)[C@@H]1CSCc2cc3ccccc3cc2CSC[C@H](NC(=O)[C@H](CCC(N)=O)NC(=O)[C@@H](N)CC(C)C)C(=O)N[C@@H](CC(=O)O)C(=O)N2CCC[C@H]2C(=O)N[C@@H](CCC(=O)O)C(=O)N[C@@H]([C@@H](C)O)C(=O)NCC(=O)N[C@@H](CCC(=O)O)C(=O)N1)C(=O)N1CCC[C@H]1C(=O)NCCC(=O)N[C@@H](CCCNC(=N)N)C(=O)N[C@@H](CCCNC(=N)N)C(=O)N[C@@H](CCCNC(=N)N)C(=O)N[C@@H](CCCNC(=N)N)C(=O)N[C@@H](CCCNC(=N)N)C(=O)N[C@@H](CCCNC(=N)N)C(=O)N[C@@H](CCCNC(=N)N)C(=O)N[C@@H](CCCNC(=N)N)C(=O)N[C@@H](CCCNC(=N)N)C(=O)N[C@@H](CCCNC(=N)N)C(N)=O` [Example 69, {[H-Leu-G1n-Cys(&^1)-Asp-Pro-Glu-Thr-Gly-Glu-Cys(&^2)-Leu-Pro-βAla-Arg10-NH2][&^1(naphthalene)2,3-diyldimethylene&^2]}] showed an IC50 of 1 to 100 nM.
